Here are results for three compounds from patent US20260335347A1, “COMBINATION THERAPY WITH SPARSENTAN AND A SGLT2 INHIBITOR FOR TREATING KIDNEY DISEASES OR DISORDERS” (Travere Therapeutics, Inc., priority 2022, published 2026).

Like-named read-outs stand apart in the source and are kept apart here.

A short description of series [1]: Open-label drug-drug interaction study in healthy adults: safety and tolerability (TEAEs). The series is classed as in vivo, human. To be noted: 10 mg DAPA, 800 mg SPAR once daily. Here is the method: (§1) Potential drug-drug interactions (DDI) of sparsentan with SGLT2 inhibitors are not known. The safety of administering sparsentan and dapagliflozin was evaluated in an open-label, drug-drug interaction study in healthy […]. This phase 1 study examined the effect of multiple doses of sparsentan on the pharmacokinetics (PK) of single-dose dapagliflozin and assessed the safety and tolerability of single-dose dapagliflozin when co-administered after multiple doses of sparsentan in healthy adults.
(§2) The open-label DDI study included Period 1 (Days 1-5; single dose of 10 mg dapagliflozin (“DAPA”) on Day 1, PK sampling pre-dose and up to 96 hours post-dose) and Period 2 (Days 5-14; 800 mg sparsentan (“SPAR”) once daily for 10 days with single 10 mg dose DAPA co-administered on Day 11, DAPA PK sampling pre-dose and up to 96 hours after Day 11 dosing). To avoid hypoglycemic events, subjects received an oral 20% glucose solution in water with the DAPA dose and every ~15 minutes up to 4 hours post-dose. Plasma concentrations and PK parameters of DAPA and SPAR were summarized. Subjects with evaluable data for both periods were included in an ANOVA mixed model analysis of DAPA AUC0-t, AUC0-inf, and Cmax following DAPA+SPAR vs DAPA alone. Treatment-emergent adverse events (TEAEs) were summarized.

Series [2] can be described thus: Open-label drug-drug interaction study in healthy adults: plasma dapagliflozin PK. The note with it: for AUC(0-inf) / AUC(0-t) / Cmax: human, plasma, 10 mg; for AUC(0-inf): n = 16; for AUC(0-t) / Cmax: n = 20. The series is classed as in vivo, human. Here is the method: as §1, §2
The test system of series [3] is patients with FSGS. The series is described as follows: DUPLEX trial: proportion of patients achieving UP/C ≤1.5 g/g and >40% reduction in UP/C (FPRE). The note with it: p=0.0094; for patients achieving FPRE (UP/C ≤1.5 g/g and >40 percent reduction in UP/C from Baseline): after 36 weeks of treatment, first approximately 190 patients. Format: in vivo, human. Here is the method:
(§3) The efficacy and safety of sparsentan were evaluated in DUPLEX, a randomized, double-blind, active-controlled, multicenter, global trial in patients with FSGS after exclusion of known secondary causes.
The trial enrolled patients with eGFR≥30 mL/min/1.73 m^2 and urinary protein to creatinine ratio (UP/C)>1.5 g/g. Randomization was stratified based on eGFR (≥30 to <60 mL/min/1.73 m^2 versus eGFR≥60 mL/min/1.73 m^2) and UP/C values (≤3.5 g/g versus >3.5 g/g for patients≥18 years of age, or ≤2 g/g versus >2 g/g for patients<18 years of age).
(§4) All patients were randomized at a 1:1 ratio to receive sparsentan or the active control, irbesartan. Sparsentan was administered at a dose of 400 mg once daily by mouth for 2 weeks and then titrated to 800 mg once daily as tolerated. Irbesartan was administered at a dose of 150 mg once daily by mouth for 2 weeks and then titrated to 300 mg once daily as tolerated. In patients weighing 50 kg or less, dosing was halved in both treatment arms (e.g., sparsentan administered at a dose of 200 mg once daily by mouth for 2 weeks and then titrated to 400 mg once daily as tolerated).
The proportion of patients achieving a UP/C≤1.5 g/g and a >40% reduction from baseline in UP/C was evaluated after patients completed 36 weeks of treatment.
In the DUPLEX Study, a total of 371 patients were randomized 1:1 to receive either sparsentan or irbesartan, the active control. The study protocol provided for an unblinded analysis to evaluate the interim efficacy endpoint—the proportion of patients achieving FPRE, which is a clinically meaningful endpoint defined as urine protein-to-creatinine ratio (UP/C)≤1.5 g/g and a >40 percent reduction in UP/C from Baseline, at Week 36—following the first approximately 190 patients reaching 36 weeks of treatment. After 36 weeks of treatment, 42.0 percent of patients receiving sparsentan achieved FPRE, compared to 26.0 percent of irbesartan-treated patients (p=0.0094).

The subject of series [4] is patients with IgAN. In words: PROTECT Phase 3 trial: change in proteinuria (UP/C) and eGFR, sparsentan vs irbesartan. The series is classed as in vivo, human. The note with it: for mean reduction in proteinuria (UP/C) from baseline: after 36 weeks of treatment, first 280 patients, sparsentan 200 mg titrated to 400 mg once daily or irbesartan 150 mg titrated to 300 mg once daily, oral, p<0.0001. Here is the method: (§5) The long-term nephroprotective potential of treatment with sparsentan was evaluated in PROTECT, a 114-week, randomized, global, multicenter, double-blind, parallel-group, active-control Phase 3 clinical study in patients with IgAN who have persistent overt proteinuria and remain at high risk of disease progression despite being on a stable dose (or doses) of an angiotensin-converting enzyme inhibitor (ACEI) and/or angiotensin receptor blocker (ARB) that is (are) a maximum tolerated dose that is at least one half of the maximum labeled dose (MLD) (according to approved labeling). The purpose of the study is to evaluate the potential benefit of sparsentan on kidney function by analyzing change in proteinuria (protein in urine) and estimated glomerular filtration rate (eGFR) as compared to current standard treatment.
404 patients aged≥18 years were enrolled in the study globally.
Enrolled patients were at high risk of progressing to renal failure. The trial enrolled patients with eGFR≥30 mL/min/1.73 m^2 and urinary protein to creatinine ratio (UP/C)≥1.0 g/g at screening.
Inclusion criteria included: age 18 years or older at screening; biopsy-proven primary IgAN; proteinuria (UP/C) of ≥1 g/day at screening; eGFR≥30 mL/min/1.73 m^2 at screening; currently on stable dose of ACEI and/or ARB therapy, for at least 12 weeks prior to screening (maximum tolerated dose and at least one-half of the maximum labeled dose); systolic BP≤150 mmHg and diastolic BP≤100 mmHg at screening; willing to undergo change in ACEI and/or ARB and anti-hypertensive medications; and agree to contraception.
(§6) All patients were randomized at a 1:1 ratio to receive sparsentan or the active control, irbesartan (an angiotensin receptor blocker), as a single oral morning dose. Sparsentan was administered at a dose of 200 mg once daily by mouth for 2 weeks and then titrated to 400 mg once daily as tolerated. Irbesartan was administered at a dose of 150 mg once daily by mouth for 2 weeks and then titrated to 300 mg once daily as tolerated.
Change in proteinuria (UP/C) from baseline (Day 1) at Week 36 in sparsentan-treated patients as compared to irbesartan-treated patients was assessed. The Week 36 UP/C was based on a 24-hour urine sample. Secondary outcome measures included eGFR over a 52-week period and a 104-week period following the initial acute effect of randomized therapy. […] Also assessed was eGFR over a 58-week and a 110-week (approximately 2-year) period following the initiation of randomized therapy (the analysis is from Day 1 to 58 weeks postrandomization or from Day 1 to 110 weeks postrandomization, eGFR total slope at 2 years). […]

The subject of series [5] is patients with IgAN. The series is described as follows: PROTECT Phase 3 trial: safety, interim analysis. The series is classed as in vivo, human. To be noted: 400 mg once daily. As to the method:
as §5, §6
The study provided for an analysis of topline results at 36 weeks, following the first 280 patients reaching 36 weeks of treatment.

The subject of series [6] is angiotensin II receptors (Type 1) ("AT1" receptors). The note with it: selective dual-acting receptor antagonist; cited from earlier work.
The test system of series [7] is patients with FSGS. The series is described as follows: DUPLEX trial: interim safety. Format: in vivo, human. Here is the method:
as §3, §4

For series [8], the system named is patients with FSGS. The note with it: Phase 2 clinical study; cited from earlier work.
The subject of series [9] is endothelin (A type) receptors ("ETA" receptors). To be noted: selective dual-acting receptor antagonist; cited from earlier work.

Regarding `CCOc1ccc(Cc2cc([C@@H]3O[C@H](CO)[C@@H](O)[C@H](O)[C@H]3O)ccc2Cl)cc1` [DAPA, dapagliflozin], the “tolerability of single-dose DAPA co-administered with multiple doses of SPAR” value in [1] is on record as “appeared to be well tolerated”. In addition, the “mean peak and extent of DAPA exposure (Cmax and AUC)” value in series [2] (10 mg DAPA alone vs 10 mg DAPA+800 mg SPAR) is given as “similar”. Moreover, the AUC(0-inf) in series [2] (single 10 mg DAPA alone, Day 1, read-out: AUC0-inf, geometric LSMs (DAPA alone)) came out at 534 ng·h/mL; in series [2] (single 10 mg DAPA co-administered on Day 11 with 800 mg SPAR once daily for 10 days, read-out: AUC0-inf, geometric LSMs (DAPA + SPAR)), 565 ng·h/mL. The AUC(0-t) in [2] (single 10 mg DAPA alone, Day 1, read-out: AUC0-t, geometric LSMs (DAPA alone)) worked out at 509 ng·h/mL; in series [2] (single 10 mg DAPA co-administered on Day 11 with 800 mg SPAR once daily for 10 days, read-out: AUC0-t, geometric LSMs (DAPA + SPAR)), 526 ng·h/mL. The maximum concentration (Cmax) (in general, the highest concentration seen after dosing) in series [2] (single 10 mg DAPA alone, Day 1, read-out: Cmax, geometric LSMs (DAPA alone)) was determined as 73.9 ng/mL; in series [2] (single 10 mg DAPA co-administered on Day 11 with 800 mg SPAR once daily for 10 days, read-out: Cmax, geometric LSMs (DAPA + SPAR)), 79.9 ng/mL. Besides, the “Cmax, GLSMR (DAPA + SPAR vs DAPA alone)” value in [2] (plasma dapagliflozin, 90% CI 96.0-121.8, intra-subject CV% 22.0) worked out at 108.2%. For the same compound, the “AUC0-t, GLSMR (DAPA + SPAR vs DAPA alone)” value in [2] (plasma dapagliflozin, 90% CI 99.9-107.0, intra-subject CV% 6.3) is 103.4%. In series [2] (plasma dapagliflozin, 90% CI 103.1-108.9, intra-subject CV% 4.4), the “AUC0-inf, GLSMR (DAPA + SPAR vs DAPA alone)” value amounted to 105.9%.

In the case of `CCCCC1=NC2(CCCC2)C(=O)N1Cc1ccc(-c2ccccc2-c2nnn[nH]2)cc1` [irbesartan], the “patients achieving FPRE (UP/C ≤1.5 g/g and >40 percent reduction in UP/C from Baseline)” value in series [3] came out at 26.0%. In series [4], the “mean reduction in proteinuria (UP/C) from baseline” value was 15.1%.

For `CCCCC1=NC2(CCCC2)C(=O)N1Cc1ccc(-c2ccccc2S(=O)(=O)Nc2noc(C)c2C)c(COCC)c1` [sparsentan, 2-[4-[(2-butyl-4-oxo-1,3-diazaspiro[4.4]non-1-en-3-yl)methyl]-2-(ethoxymethyl)phenyl]-N-(4,5-dimethyl-1,2-oxazol-3-yl)benzenesulfonamide], in [5], the “tolerability (preliminary interim results)” value is reported as “generally well-tolerated”. For the same compound, in series [6], the “affinity for angiotensin II receptors (Type 1)” value is listed as “selective dual-acting receptor antagonist”. The “tolerability (preliminary review of interim safety results)” value in [7] (FSGS) was “generally well-tolerated”. Besides, the “overall safety profiles between treatment groups” value in series [7] (sparsentan vs active control treatment group) is given as “generally comparable between treatment groups”. In addition, in [2] (healthy adults, 800 mg SPAR once daily for 10 days), the “effect of multiple dosing of SPAR on single-dose DAPA PK” value was “did not affect single-dose DAPA PK”. Further, in series [8], the “reduction of proteinuria in patients with FSGS” value is reported as “shown to reduce proteinuria”. Moreover, in series [3] (Week 36, vs irbesartan), the “proportion achieving composite endpoint, sparsentan arm vs irbesartan arm” value is “significantly higher”. The “patients achieving FPRE (UP/C ≤1.5 g/g and >40 percent reduction in UP/C from Baseline)” value in series [3] was determined as 42.0%. Also, in series [9], the “affinity for endothelin (A type) receptors” value was “selective dual-acting receptor antagonist with affinity for endothelin (A type) receptors”. The “reduction in proteinuria compared to the irbesartan-treated group” value in [4] (36 weeks, sparsentan-treated vs irbesartan-treated group) was “greater than threefold reduction in proteinuria”. Further, in series [4], the “mean reduction in proteinuria (UP/C) from baseline” value was 49.8%. The “preliminary eGFR data at interim analysis” value in series [4] (interim analysis, after two years of treatment) was “indicative of a potential clinically meaningful treatment effect”.
